This is an account of results in paper PMC6023986, “Interactions Between Emodin and Efflux Transporters on Rat Enterocyte by a Validated Ussing Chamber Technique” (Frontiers in Pharmacology, 2018).

The target in data set [1] is T1, MRP2 (Rattus norvegicus, UniProt Q63120). As to the kind of experiment: Influence of emodin on MRP2 function: pravastatin bidirectional transport in the presence of emodin (Ussing chamber). Type of data set: in vitro ADME. More on the design: intestinal segments including duodenum, jejunum, ileum, and colon from anesthetized rats were immediately removed by surgery; from tissue; host or cells: stripped rat intestine (jejunum and ileum in validation; jejunum for the emodin studies). To be noted: rat jejunum; for Papp at 47 μM: rat. The text has this:
(§1) The four intestinal segments including duodenum, jejunum, ileum, and colon from anesthetized rats were immediately removed by surgery and washed with KRB solution. Each section of the intestinal segments was then placed in cold (on ice), bubbled (O2:CO2 95:5) KRB buffer. The four intestinal segments were then cut into 2 cm pieces, respectively, and serosas were removed by blunt dissection. Peyer’s patches were excluded from the experiment by visually identified. The stripped tissues were mounted in chambers with exposed surface area of 0.49 cm^2. Temperature of the chambers was maintained at 37 ± 0.5°C. Each of the half-cells in the chambers was filled with 5 mL fresh KRB buffer (pH 6.5). Tissue viability was continuously controlled by potential difference (PD). Tissue with electrical values less than 2 mV was refused ([Moazed and Hiebert, 2007]; [Heinen et al., 2013]).
In this study, the effects of the three efflux transporters on emodin intestinal absorption were investigated. Meanwhile, the influence of emodin on intestinal P-gp, MRP2, and MRP3 functions were also discussed. Solutions with three concentrations (low, middle, and high) of emodin were filled in the mucosal or serosal compartment to measure the bidirectional transport characteristic. […] In the emodin impact experiments, digoxin, pravastatin, and teniposide were employed as P-gp, MRP2, and MRP3 substrates. Changes of the bidirectional transport characteristic were measured before and after adding emodin to the mucosal side.
(§2) Frozen samples were adequately vortexed after thawing at the room temperature; 10 μL suitable IS solution was added to 200 μL samples; 200 μL methanol was added after a thorough vortex mixing for 30 s. The mixtures were then vortexed for 30 s and centrifuged at 15,000 rpm for 30 min. Finally, 5 μL of supernatant was injected into the LC-MS/MS system.
(§3) The quantifications of the compounds were performed by the TSQ Quantum Ultra Triple Quadrupole LC-MS/MS system from Thermo Fisher Scientific. Chromatography was carried out using an Agilent Poroshell 120 SB-C18 (2.7 μm, 2.1 mm × 100 mm) column with a Phenomenex AFO-8497 C18 pre-column, operating at 30°C. Adaptive gradient elution methods were applied for the analytes. The flow rate of the mobile phase was kept at 0.2 mL min^-1. Flow was directed to the ion spray interface. All measurements were carried out in negative ESI mode. Ion spray voltage was -2500 V. Vaporizer and capillary temperatures were set at 250 and 350°C, respectively. Auto sampler temperature was set at 10°C. Sheath gas and aux gas were set at 30 and 15 Arb, respectively. […] Peak integrations and calibrations were carried out using LC Quan 2.5.2 software from Thermo Fisher Scientific.
The Q (accumulative quantity), Papp (apparent permeability), Er (efflux ratio), Pr (Papp ratio), and Err (Er ratio) across the excited rat intestinal segments in the Ussing chamber were calculated using the following equations ([Li et al., 2012]; [Huang et al., 2016]): […]
(§4) where Cn (nM) is the concentration of the drug at the time point (n), Q (nM) is the accumulated absorption amount, A is the exposed surface area of the intestine (0.49 cm^2), dQ/dt (nM⋅s^-1) is the amount of the drug transported, and C0 (nM) is the initial concentration of the test drug. Experiments were performed in batches, so control groups were set as one for each batch.

The target in data set [2] is T1, MRP2. As to the kind of experiment: Ussing chamber bidirectional transport, model validation for MRP2 (pravastatin substrate, MK571 inhibitor). Type of data set: in vitro ADME. Details: intestinal segments including duodenum, jejunum, ileum, and colon from anesthetized rats were immediately removed by surgery; from tissue; host or cells: stripped rat intestine (jejunum and ileum in validation; jejunum for the emodin studies). To be noted: rat.
Excerpt: as §1, with “(PD).” for “(PD). Tissue with electrical values less than 2 mV was refused ([Moazed and Hiebert, 2007]; [Heinen et al., 2013]).”
Digoxin, pravastatin, and teniposide were employed as the test substrates of P-gp, MRP2, and MRP3. […] The experiments were started after 30 min equilibration time, by changing the KRB buffer on both sides; 5 mL KRB solution with different test compounds was filled in the mucosal or serosal compartment; meanwhile, equal volume fresh buffer was added to the other compartment. […] The bidirectional transport studies with specific inhibitors were assessed to validate this model whether or not suitable for P-gp, MRP2, and MRP3 studies.
as §2
as §3, with “Chromatography was carried out using an Agilent Poroshell 120 SB-C18 (2.7 μm, 2.1 mm × 100 mm) column with a Phenomenex AFO-8497 C18 pre-column, operating at 30°C.” left out
as §4

Where two headings read alike, the source gives them in different places.

T1 sequence (Q63120 whole entry): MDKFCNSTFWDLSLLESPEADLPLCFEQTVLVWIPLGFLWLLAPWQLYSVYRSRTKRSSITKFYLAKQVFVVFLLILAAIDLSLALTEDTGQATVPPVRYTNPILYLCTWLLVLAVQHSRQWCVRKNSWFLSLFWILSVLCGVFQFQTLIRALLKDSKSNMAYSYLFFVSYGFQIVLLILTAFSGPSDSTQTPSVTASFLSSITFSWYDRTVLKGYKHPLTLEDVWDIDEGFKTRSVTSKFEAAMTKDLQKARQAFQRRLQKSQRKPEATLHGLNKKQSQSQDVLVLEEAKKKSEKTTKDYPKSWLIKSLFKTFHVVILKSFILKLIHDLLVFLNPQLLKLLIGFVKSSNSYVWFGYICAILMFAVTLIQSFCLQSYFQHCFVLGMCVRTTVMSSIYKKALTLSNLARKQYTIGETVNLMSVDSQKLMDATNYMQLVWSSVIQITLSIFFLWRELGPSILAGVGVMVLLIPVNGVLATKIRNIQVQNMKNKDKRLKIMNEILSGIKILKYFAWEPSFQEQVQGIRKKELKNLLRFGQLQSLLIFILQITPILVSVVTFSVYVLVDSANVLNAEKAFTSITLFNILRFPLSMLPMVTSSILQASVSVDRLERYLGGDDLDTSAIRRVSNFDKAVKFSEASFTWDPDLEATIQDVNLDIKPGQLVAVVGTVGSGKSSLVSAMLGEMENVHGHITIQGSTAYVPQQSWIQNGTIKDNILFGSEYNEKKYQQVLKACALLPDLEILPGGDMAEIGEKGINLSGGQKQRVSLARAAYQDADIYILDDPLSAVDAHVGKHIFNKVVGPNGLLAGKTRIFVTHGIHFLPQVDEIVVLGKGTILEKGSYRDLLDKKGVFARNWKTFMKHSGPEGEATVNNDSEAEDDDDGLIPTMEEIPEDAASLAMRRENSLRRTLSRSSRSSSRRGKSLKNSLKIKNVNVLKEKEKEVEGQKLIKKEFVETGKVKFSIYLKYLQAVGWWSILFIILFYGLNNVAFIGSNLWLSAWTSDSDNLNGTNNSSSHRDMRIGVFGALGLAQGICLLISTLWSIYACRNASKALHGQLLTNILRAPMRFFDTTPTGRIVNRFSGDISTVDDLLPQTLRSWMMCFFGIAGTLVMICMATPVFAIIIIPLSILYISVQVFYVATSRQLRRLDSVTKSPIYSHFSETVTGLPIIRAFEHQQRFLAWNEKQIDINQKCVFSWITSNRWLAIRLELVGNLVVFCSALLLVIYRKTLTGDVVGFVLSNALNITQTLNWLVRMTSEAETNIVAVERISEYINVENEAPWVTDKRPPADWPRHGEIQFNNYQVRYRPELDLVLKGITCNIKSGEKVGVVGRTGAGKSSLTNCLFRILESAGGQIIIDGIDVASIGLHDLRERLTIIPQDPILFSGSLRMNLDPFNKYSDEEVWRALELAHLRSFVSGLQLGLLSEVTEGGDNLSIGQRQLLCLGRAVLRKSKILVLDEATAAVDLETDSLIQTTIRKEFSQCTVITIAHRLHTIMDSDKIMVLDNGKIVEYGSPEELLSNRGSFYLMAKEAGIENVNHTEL

Regarding `CC[C@H](C)C(=O)O[C@H]1C[C@H](O)C=C2C=C[C@H](C)[C@H](CC[C@@H](O)C[C@@H](O)CC(=O)O)[C@H]21` [Pravastatin], the “Change of Papp and Er values of pravastatin after emodin added” value on MRP2 [1] (pravastatin 47 μM, emodin 185, 370, 740 μM) is listed as “No significant differences”. The Papp at 47 μM at MRP2 [1] (pH 6.5, pravastatin 47 μM, without emodin, read-out: Papp M-S, control) came to 64.5 ± 27.9 ×10⁻⁶ cm/s; on MRP2 [1] (pH 6.5, pravastatin 47 μM, without emodin, read-out: Papp S-M, control), 82.2 ± 40.4 ×10⁻⁶ cm/s; at MRP2 [1] (pH 6.5, with emodin 185 μM on mucosal side, pravastatin 47 μM, emodin 185 μM on mucosal side, read-out: Papp M-S in the presence of emodin), 123 ± 19.9 ×10⁻⁶ cm/s; on MRP2 [1] (pH 6.5, with emodin 185 μM on mucosal side, pravastatin 47 μM, emodin 185 μM on mucosal side, read-out: Papp S-M in the presence of emodin) it was 70.3 ± 19.8 ×10⁻⁶ cm/s; at MRP2 [1] (pH 6.5, with emodin 370 μM on mucosal side, pravastatin 47 μM, emodin 370 μM on mucosal side, read-out: Papp M-S in the presence of emodin) it was 106 ± 40.3 ×10⁻⁶ cm/s; on MRP2 [1] (pH 6.5, with emodin 370 μM on mucosal side, pravastatin 47 μM, emodin 370 μM on mucosal side, read-out: Papp S-M in the presence of emodin), 90.8 ± 12.7 ×10⁻⁶ cm/s. Also, the Papp at 47 μM at MRP2 [1] (pH 6.5, with emodin 740 μM on mucosal side, pravastatin 47 μM, emodin 740 μM on mucosal side, read-out: Papp M-S in the presence of emodin) was found to be 93.8 ± 28.7 ×10⁻⁶ cm/s; at MRP2 [1] (pH 6.5, with emodin 740 μM on mucosal side, pravastatin 47 μM, emodin 740 μM on mucosal side, read-out: Papp S-M in the presence of emodin), 105 ± 27.3 ×10⁻⁶ cm/s. Besides, the Papp is 124 ± 67.3 ×10⁻⁶ cm/s at MRP2 [2] (pH 6.5, rat duodenum, without inhibitor, read-out: Papp M-S, control); 287 ± 165 ×10⁻⁶ cm/s on MRP2 [2] (pH 6.5, rat duodenum, without inhibitor, read-out: Papp S-M, control); 122 ± 52.5 ×10⁻⁶ cm/s at MRP2 [2] (pH 6.5, rat ileum, without inhibitor, read-out: Papp M-S, control); 678 ± 325 ×10⁻⁶ cm/s at MRP2 [2] (pH 6.5, rat ileum, without inhibitor, read-out: Papp S-M, control); 146 ± 39.4 ×10⁻⁶ cm/s on MRP2 [2] (pH 6.5, rat jejunum, without inhibitor, read-out: Papp M-S, control); 496 ± 226 ×10⁻⁶ cm/s at MRP2 [2] (pH 6.5, rat jejunum, without inhibitor, read-out: Papp S-M, control). The Papp on MRP2 [2] (pH 6.5, with MK571 186 μM on mucosal side, rat jejunum, with MK571 186 μM on mucosal side, read-out: Papp S-M, with inhibitor) turned out to be 127 ± 33.4 ×10⁻⁶ cm/s; on MRP2 [2] (pH 6.5, with MK571 186 μM, mucosal side, rat duodenum, with MK571 186 μM on mucosal side, read-out: Papp M-S, with inhibitor), 77.9 ± 14.8 ×10⁻⁶ cm/s; on MRP2 [2] (pH 6.5, with MK571 186 μM, mucosal side, rat duodenum, with MK571 186 μM on mucosal side, read-out: Papp S-M, with inhibitor) it was 112 ± 52.7 ×10⁻⁶ cm/s; on MRP2 [2] (pH 6.5, with MK571 186 μM, mucosal side, rat ileum, with MK571 186 μM on mucosal side, read-out: Papp M-S, with inhibitor), 124 ± 67.9 ×10⁻⁶ cm/s; on MRP2 [2] (pH 6.5, with MK571 186 μM, mucosal side, rat ileum, with MK571 186 μM on mucosal side, read-out: Papp S-M, with inhibitor) it was 224 ± 141 ×10⁻⁶ cm/s; at MRP2 [2] (pH 6.5, with MK571 186 μM, mucosal side, rat jejunum, with MK571 186 μM on mucosal side, read-out: Papp M-S, with inhibitor) it was 107 ± 26.8 ×10⁻⁶ cm/s.

For orientation: Papp means a coefficient for how fast a substance crosses the barrier.
